Literature values in US20030125243A1, “Synthesis of cyclic peptides” (priority 2000, published 2003).

Target: αvβ3 (Homo sapiens, UniProt P05106+P06756)
Details: background statement, Haubner et al. 1996

Sequence of αvβ3 (P06756 31-889 limits assumed): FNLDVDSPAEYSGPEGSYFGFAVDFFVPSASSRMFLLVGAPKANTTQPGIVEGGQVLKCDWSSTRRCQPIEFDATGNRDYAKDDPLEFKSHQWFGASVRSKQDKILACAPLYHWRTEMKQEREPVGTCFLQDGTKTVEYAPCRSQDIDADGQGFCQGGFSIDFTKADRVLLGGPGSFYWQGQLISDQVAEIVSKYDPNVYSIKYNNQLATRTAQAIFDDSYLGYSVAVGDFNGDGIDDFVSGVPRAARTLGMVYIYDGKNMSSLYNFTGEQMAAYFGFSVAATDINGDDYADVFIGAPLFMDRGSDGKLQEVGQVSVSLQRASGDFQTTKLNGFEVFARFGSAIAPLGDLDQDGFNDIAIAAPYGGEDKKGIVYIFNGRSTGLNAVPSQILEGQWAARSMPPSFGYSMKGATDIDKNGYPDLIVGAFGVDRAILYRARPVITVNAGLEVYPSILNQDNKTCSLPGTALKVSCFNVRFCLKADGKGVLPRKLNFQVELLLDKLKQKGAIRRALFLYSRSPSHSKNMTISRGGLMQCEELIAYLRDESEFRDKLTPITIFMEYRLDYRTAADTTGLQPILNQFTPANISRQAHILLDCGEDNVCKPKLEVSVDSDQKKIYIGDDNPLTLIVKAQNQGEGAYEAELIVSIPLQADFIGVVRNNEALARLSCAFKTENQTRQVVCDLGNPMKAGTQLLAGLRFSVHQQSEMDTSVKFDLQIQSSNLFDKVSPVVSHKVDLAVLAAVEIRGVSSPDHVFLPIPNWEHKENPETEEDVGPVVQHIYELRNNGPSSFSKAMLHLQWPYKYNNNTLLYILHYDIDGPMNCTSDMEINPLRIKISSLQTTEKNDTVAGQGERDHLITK
Sequence of αvβ3 (P06756 891-1048 partner limits assumed): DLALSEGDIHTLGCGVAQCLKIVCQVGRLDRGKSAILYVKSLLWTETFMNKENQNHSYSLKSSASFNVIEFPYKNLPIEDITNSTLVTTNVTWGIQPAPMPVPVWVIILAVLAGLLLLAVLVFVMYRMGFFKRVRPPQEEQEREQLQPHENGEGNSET
Sequence of αvβ3 (P05106 27-788): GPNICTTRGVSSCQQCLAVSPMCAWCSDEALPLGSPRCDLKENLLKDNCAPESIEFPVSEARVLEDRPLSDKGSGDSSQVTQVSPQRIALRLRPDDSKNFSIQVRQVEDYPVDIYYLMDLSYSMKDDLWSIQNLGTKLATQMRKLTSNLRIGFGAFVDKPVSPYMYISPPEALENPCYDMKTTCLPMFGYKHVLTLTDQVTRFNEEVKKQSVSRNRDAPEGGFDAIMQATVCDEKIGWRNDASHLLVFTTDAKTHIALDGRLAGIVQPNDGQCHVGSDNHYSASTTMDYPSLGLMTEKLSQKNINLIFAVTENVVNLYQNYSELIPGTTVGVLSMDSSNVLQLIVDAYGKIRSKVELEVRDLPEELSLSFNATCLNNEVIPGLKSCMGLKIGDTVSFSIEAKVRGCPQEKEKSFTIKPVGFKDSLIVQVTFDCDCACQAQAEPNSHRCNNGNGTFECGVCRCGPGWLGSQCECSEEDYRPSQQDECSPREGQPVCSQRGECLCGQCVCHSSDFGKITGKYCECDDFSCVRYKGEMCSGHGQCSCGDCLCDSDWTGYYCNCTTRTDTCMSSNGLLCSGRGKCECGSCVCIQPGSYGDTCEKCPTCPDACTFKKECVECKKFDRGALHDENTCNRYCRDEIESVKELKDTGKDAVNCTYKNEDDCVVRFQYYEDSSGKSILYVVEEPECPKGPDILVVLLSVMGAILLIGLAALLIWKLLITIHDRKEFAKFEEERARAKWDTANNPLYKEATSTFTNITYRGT

## cRGDfK
  binding to αvβ3 (potency and selectivity): high potency and selectivity
